Measured values published in US10508098B2, “Quinazolinones and azaquinazolinones as ubiquitin-specific protease 7 inhibitors” (FORMA Therapeutics, Inc., priority 2015, dated 2019).

target: USP7 (Homo sapiens (Human), UniProt Q93009); assay: USP7 Assays A and B (Ubiquitin-Rhodamine 110 assay); format: biochemical; details: USP7 (208-1102) 6*His; substrate Ub-Rh110 25 nM; assays A and B not distinguished
Description: Example 9: USP7 Assay A (Ubitquin-Rhodamine 110 Assay)
Each assay was performed in a final volume of 15 μL in assay buffer containing 20 mM Tris-HCl (pH 8.0, (1M Tris-HCl, pH 8.0 solution; Corning 46-031-CM)), 1 mM GSH (L-Glutathione reduced; Sigma #G4251), 0.03% BGG (0.22 μM filtered, Sigma, #G7516-25G), and 0.01% Triton X-100 (Sigma, #T9284-10L). Nanoliter quantities of either an 8-point or 10-point, 3-fold serial dilution in DMSO was pre-dispensed into assay plates (Perkin Elmer, ProxiPlate-384 F Plus, #6008269) for a final test concentration range of either 25 μM to 11 nM or 25 μM to 1.3 nM, respectively. The final concentration of the enzyme (USP7, construct USP7 (208-1102) 6*His, Viva Biotech) in the assay was 62.5 pM. Final substrate (Ub-Rh110; Ubiquitin-Rhodamine 110, R&D Systems #U-555) concentration was 25 nM with [Ub-Rh110]<<Km. 5 μL of 2× enzyme was added to assay plates (pre-stamped with compound) preincubated with USP7 for 30 min and then 5 μL of 2×Ub-Rh110 was added to assay plates. Plates were incubated stacked for 20 min at room temperature before 5 μL of stop solution (final concentration of 10 mM citric acid in assay buffer (Sigma, #251275-500G)). Fluorescence was read on the Envision (Excitation at 485 nm and Emission at 535 nm; Perkin Elmer) or on the PheraSTAR (Excitation at 485 nm and Emission at 535 nm; BMG Labtech).
Example 10: USP7 Assay B (Ubitquin-Rhodamine 110 Assay)
Each assay was performed in a final volume of 20 μL in assay buffer containing 20 mM Tris-HCl (pH 8.0, (1M Tris-HCl, pH 8.0 solution; Corning 46-031-CM)), 2 mM CaCl2 (1M Calcium Chloride solution; Sigma #21114) 1 mM GSH (L-Glutathione reduced; Sigma #G4251), 0.01% Prionex (0.22 μM filtered, Sigma #G-0411), and 0.01% Triton X-100. Stock compound solutions were stored at −20° C. as 10 mM in DMSO. Up to 1 month prior to the assay, 2 mM test compounds were pre-dispensed into assay plates (Black, low volume; Corning #3820) and frozen at −20° C. Prestamped assay plates were allowed to come to room temperature on the day of the assay. For the screen, 100 nL of 2 mM was pre-dispensed for a final screening concentration of 10 μM (DMSO(fc)=0.5%). For follow-up studies, 250 nL of an 8-point, 3-fold serial dilution in DMSO was pre-dispensed into assay plates for a final test concentration of 25 μM-11 nM (1.25% DMSO final concentration). Unless otherwise indicated, all follow-up assays were run on triplecate plates. Enzyme (USP7, construct Met (208-1102)-TEV-6*His; Viva Q93009-1) concentration and incubation times were optimized for the maximal signal-to-background while maintaining initial velocity conditions at a fixed substrate concentration. The final concentration of the enzyme in the assay was either 75 pM or 250 pM. Final substrate (Ub-Rh110; Ubiquitin-Rhodamine 110, R&D Systems (biotechne)#U-555) concentration was 25 nM with [Ub-Rh110]<<Km. Pre-stamped with compounds were either not preincubated or preincubated with USP7 between 30 to 120 min prior to the addition of 10 μL of 2×Ub-Rh110 to compound plates. Plates were incubated stacked for either 23 or 45 min at room temperature before fluorescence was read on the Envision (Excitation at 485 nm and Emission at 535 nm; Perkin Elmer) or on the PheraSTAR (Excitation at 485 nm and Emission at 535 nm; BMG Labtech).
Data from USP7 Assays A and B were reported as percent inhibition (inh) compared with control wells based on the following equation: % inh=1−((FLU−AveLow)/(AveHigh−AveLow)) where FLU=measured Fluorescence. AveLow=average Fluorescence of no enzyme control (n=16). AveHigh=average Fluorescence of DMSO control (n=16). IC50 values were determined by curve fitting of the standard 4 parameter logistic fitting algorithm included in the Activity Base software package: IDBS XE Designer Model205. Data is fitted using the Levenburg Marquardt algorithm.

USP7, sequence (Q93009 208-1102): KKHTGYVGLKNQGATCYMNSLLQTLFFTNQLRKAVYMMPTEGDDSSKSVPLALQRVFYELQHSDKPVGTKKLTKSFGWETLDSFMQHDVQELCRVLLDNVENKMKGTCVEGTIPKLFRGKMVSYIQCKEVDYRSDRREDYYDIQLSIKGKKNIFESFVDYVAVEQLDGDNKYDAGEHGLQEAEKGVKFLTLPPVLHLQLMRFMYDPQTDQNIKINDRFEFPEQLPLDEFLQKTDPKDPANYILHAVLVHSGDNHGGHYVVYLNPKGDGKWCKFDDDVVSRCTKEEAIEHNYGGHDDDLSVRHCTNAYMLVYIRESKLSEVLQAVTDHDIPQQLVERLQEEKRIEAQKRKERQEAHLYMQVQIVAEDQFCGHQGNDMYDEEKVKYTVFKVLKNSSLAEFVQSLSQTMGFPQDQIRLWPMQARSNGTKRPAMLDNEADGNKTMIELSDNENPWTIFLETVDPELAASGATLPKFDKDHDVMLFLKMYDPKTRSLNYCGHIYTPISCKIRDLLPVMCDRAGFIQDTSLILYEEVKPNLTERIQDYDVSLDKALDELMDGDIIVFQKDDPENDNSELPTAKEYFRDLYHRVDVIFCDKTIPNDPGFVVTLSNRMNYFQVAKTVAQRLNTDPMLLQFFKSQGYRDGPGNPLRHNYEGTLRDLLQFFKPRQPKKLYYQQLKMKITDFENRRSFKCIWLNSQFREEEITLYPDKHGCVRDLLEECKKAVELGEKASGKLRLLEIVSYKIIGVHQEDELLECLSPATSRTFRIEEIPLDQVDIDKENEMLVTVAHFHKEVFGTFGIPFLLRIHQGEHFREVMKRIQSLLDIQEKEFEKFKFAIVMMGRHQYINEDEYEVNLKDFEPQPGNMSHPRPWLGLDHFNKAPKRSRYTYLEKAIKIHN

| SMILES | IC50 [nM] |
| --- | --- |
| O=C(c1ccccc1)N1CCC(O)(Cn2cnc3c(-c4ccccc4)cccc3c2=O)CC1 [Compound I-9, 3-((1-benzoyl-4-hydroxypiperidin-4-yl)methyl)-8-phenylquinazolin-4(3H)-one] | 1000 to 10000 |
| Cc1cccc2c(=O)n(CC3(O)CCN(C(=O)C[C@@H](C)c4ccccc4)CC3)cnc12 [Compound I-6, (R)-3-((4-hydroxy-1-(3-phenylbutanoyl)piperidin-4-yl)methyl)-8-methylquinazolin-4(3H)-one] | < 200 |
| O=C(c1ccccc1)N1CCC(O)(Cn2cnc3cc(-c4ccccc4)ccc3c2=O)CC1 [Compound I-8, 3-((1-benzoyl-4-hydroxypiperidin-4-yl)methyl)-7-phenylquinazolin-4(3H)-one] | > 10000 |
| O=C(c1ccc(F)cc1)N1CCC(O)(Cn2cnc3c(Oc4ccc(F)cc4)cccc3c2=O)CC1 [Compound I-10, 3-((1-(4-fluorobenzoyl)-4-hydroxypiperidin-4-yl)methyl)-8-(4-fluorophenoxy)quinazolin-4(3H)-one] | 1000 to 10000 |
| CC(CC(=O)N1CCC(O)(Cn2cnc3cc(N)ccc3c2=O)CC1)c1ccccc1 (stereo not shown) [Compound I-3, 7-amino-3-((4-hydroxy-1-(3-phenylbutanoyl)piperidin-4-yl)methyl)quinazolin-4(3H)-one] | < 200 |
| CC(CC(=O)N1CCC(O)(Cn2cnc3cccnc3c2=O)CC1)c1ccccc1 (stereo not shown) [Compound I-13, 3-((4-hydroxy-1-(3-phenylbutanoyl)piperidin-4-yl)methyl)pyrido[3,2-d]pyrimidin-4(3H)-one] | 200 to 1000 |
| Cc1cccc2c(=O)n(CC3(O)CCN(C(=O)CC(C)c4ccccc4)CC3)cnc12 (stereo not shown) [Compound I-2, 3-((4-hydroxy-1-(3-phenylbutanoyl)piperidin-4-yl)methyl)-8-methylquinazolin-4(3H)-one] | < 200 |
| CC(CC(=O)N1CCC(O)(Cn2cnc3cnccc3c2=O)CC1)c1ccccc1 (stereo not shown) [Compound I-12, 3-((4-hydroxy-1-(3-phenylbutanoyl)piperidin-4-yl)methyl)pyrido[3,4-d]pyrimidin-4(3H)-one] | 1000 to 10000 |
| COc1ccc2c(=O)n(CC3(O)CCN(C(=O)C[C@@H](C)c4ccccc4)CC3)cnc2c1 [Compound I-5, (R)-3-((4-hydroxy-1-(3-phenylbutanoyl)piperidin-4-yl)methyl)-7-methoxyquinazolin-4(3H)-one] | < 200 |
| CC(=O)Nc1ccc2c(=O)n(CC3(O)CCN(C(=O)CC(C)c4ccccc4)CC3)cnc2c1 (stereo not shown) [Compound I-4, N-(3-((4-hydroxy-1-(3-phenylbutanoyl)piperidin-4-yl)methyl)-4-oxo-3,4-dihydroquinazolin-7-yl)acetamide] | < 200 |
| Cc1ccc2c(=O)n(CC3(O)CCN(C(=O)c4ccc5c(c4)CCN5Cc4ccccc4)CC3)cnc2c1 [Compound I-7, 3-((1-(1-benzylindoline-5-carbonyl)-4-hydroxypiperidin-4-yl)methyl)-7-methylquinazolin-4(3H)-one] | 1000 to 10000 |
| CC(CC(=O)N1CCC(O)(Cn2cnc3ncccc3c2=O)CC1)c1ccccc1 (stereo not shown) [Compound I-11, 3-((4-hydroxy-1-(3-phenylbutanoyl)piperidin-4-yl)methyl)pyrido[2,3-d]pyrimidin-4(3H)-one] | > 10000 |
| COc1ccc2c(=O)n(CC3(O)CCN(C(=O)CC(C)c4ccccc4)CC3)cnc2c1 (stereo not shown) [Compound I-1, 3-((4-hydroxy-1-(3-phenylbutanoyl)piperidin-4-yl)methyl)-7-methoxyquinazolin-4(3H)-one] | < 200 |
